Values of other authors in patent publication EP3074407B1, “COMPOUND AND METHOD FOR SELECTIVE RADIOLABELLING OF POLYPEPTIDES BY MEANS OF SOLID-PHASE SYNTHESIS” (Freie Universität Berlin, priority 2013, dated 2015).

Key:
[1] = PET, Menschen, Primaten und Nagetieren; cited from earlier work
[2] = literature (Breeman et al. 1996); cited from earlier work

Row | Compound | Aufnahme im Gehirn [1] | Durchlässigkeit der Blut-Hirn-Schranke [2]
1 | FC(F)(F)c1nnnn1-c1ccc(OC[18F])c(CN[C@H]2CCCN[C@H]2c2ccccc2)c1 [18F-SPA-RQ] | hohe Aufnahme | 
2 | [indium111-DTPA-Argl]substance P [In^111 markierten Substanz P-Agonisten] |  | undurchlässig
